Measured values reported in patent US12129267B2, “Heteroaryl amide compounds as sting activators” (Incyte Corporation, priority 2019, dated 2024).

Test system: IRF3
Experiment: IRF3 activation assay in THP-1 Dual Cells
Format: cell-based
Details: Homo sapiens, THP1-Dual, 24 hours incubation, QUANTI-Blue readout
Protocol: THP-1 Dual Cells (Invivogen) were maintained in RPMI1640 medium with addition of 10% FBS, 100 μg/mL zeocin, 10 μg/mL blasticidin. Cells were added in a 96-well flat bottom assay plate at 100,000 per well in 100 μL complete RPMI medium. Test compounds were prepared by serial dilution in complete RPMI medium and 100 μL test compounds were transferred to each corresponding well. The assay plate was incubated at 37° C., 5% CO2 for 24 hours. After the overnight incubation, 20 μL of the culture supernatants were collected, followed by addition of 180 μL of QUANTI-Blue (Invivogen) to assess IRF3 activity. The amount of IRF3 activation was assessed by reading the absorbance at 620-655 nm with a microplate reader 2 hours later. The culture supernatant from the untreated THP-1 cells was used as the negative control. To determine the NF-κB activation, another 20 μL of culture supernatant were transferred to a 96-well white plate, followed by addition of 50 μL of Quanti-Luc™ assay solution (Invivogen). The amount of NF-κB activation induced by the test compounds were determined by the luminescence above the untreated control. EC50 determination was performed by fitting the curve of percent control activity versus the log of the compound concentration using the GraphPad Prism 6.0 software.

Compound | EC50 [nM]
CCn1nc(C)cc1C(=O)Nc1nc2cc(C(N)=O)c3ccoc3c2n1C/C=C/Cn1c2nc(-c3cc(C)nn3CC)ncc2c2cc(C(N)=O)cc(OC)c21 [Example 1, (E)-1-(4-(6-carbamoyl-2-(1-ethyl-3-methyl-1H-pyrazol-5-yl)-8-methoxy-9H-pyrimido[4,5-b]indol-9-yl)but-2-en-1-yl)-2-(1-ethyl-3-methyl-1H-pyrazole-5-carboxamido)-1H-benzofuro[6,7-d]imidazole-5-carboxamide] | < 100
CCn1nc(C)cc1C(=O)Nc1nc2cc(C(N)=O)c3ccoc3c2n1C/C=C/Cn1c2nc(-c3cc(C)nn3CC)ncc2c2cc(C(N)=O)cc(OCCCOC)c21 [Example 2, (E)-1-(4-(6-carbamoyl-2-(1-ethyl-3-methyl-1H-pyrazol-5-yl)-8-(3-methoxypropoxy)-9H-pyrimido[4,5-b]indol-9-yl)but-2-en-1-yl)-2-(1-ethyl-3-methyl-1H-pyrazole-5-carboxamido)-1H-benzofuro[6,7-d]imidazole-5-carboxamide] | < 100
CCn1nc(C)cc1C(=O)Nc1nc2cc(C(N)=O)c3ccoc3c2n1C/C=C/Cn1c2nc(-c3cc(C)nn3CC)ncc2c2cc(C(N)=O)cc(OCCCO)c21 [Example 3, (E)-1-(4-(6-carbamoyl-2-(1-ethyl-3-methyl-1H-pyrazol-5-yl)-8-(3-hydroxypropoxy)-9H-pyrimido[4,5-b]indol-9-yl)but-2-en-1-yl)-2-(1-ethyl-3-methyl-1H-pyrazole-5-carboxamido)-1H-benzofuro[6,7-d]imidazole-5-carboxamide] | < 100
